{"source": "patent US4582700A", "about": "“Products and processes” (Mallinckrodt, Inc., priority 1983, dated 1986)", "test": "Comparative 5 minute biodistribution of A-E and 201TlCl in rats", "format": "in vivo, female Sprague-Dawley rats", "conditions": "rat, i.v. 25 uCi/kg", "experimental": "The following pharmacological studies were conducted on Complex (A), prepared by the method of Example 1; Complex (B), prepared by the method of Example 2; Complex (C) prepared by the method of Example 4; Complex (D) prepared by the method of Example 6; and Complex (E) prepared by the method of Example 7. Where indicated, Thallium-201 was used for comparative purposes.\nThe biodistribution of the experimental ^99m Tc(I) complexes in rats was compared with Thallium-201, currently the radionuclide of choice for myocardial perfusion imaging. Complex A was supplied as a vacuum-evaporated preparation and reconstituted with 0.9% Sodium Chloride, Injection, U.S.P. The ^99m Tc(I) complexes and ^201 TlCl solutions were diluted to concentrations of 12.5 uCi/ml with 0.9% Sodium Chloride, Injection, U.S.P. for dosing. Groups of 4-12 female Sprague-Dawley rats with body weights ranging from 180-231 g received single intraveneous injections of 25uCi/kg of Complex A, Complex B, Complex C, Complex D, Complex E, or ^201 TlCl.\nAnimals were sacrificed 5 minutes after dosing and radioactivity concentrations were determined by gamma scintillation spectroscopy in blood, heart, liver, lungs, kidney and skeletal muscle. As a measurement of selectivity of myocardial uptake, heart/blood, heart/liver and heart/lung tissue ratios were determined."}
{"smiles": "[Cl][201Tl]", "note": "[^201 TlCl]", "values": [{"measurement": "Mean % Dose/g or ml, Blood", "setting": "5 min, blood", "value": "0.26 % Dose/g or ml"}, {"measurement": "Mean % Dose/g or ml, Heart", "setting": "5 min, heart", "value": "6.35 % Dose/g or ml"}, {"measurement": "Mean % Dose/g or ml, Kidney", "setting": "5 min, kidney", "value": "6.53 % Dose/g or ml"}, {"measurement": "Mean % Dose/g or ml, Liver", "setting": "5 min, liver", "value": "1.01 % Dose/g or ml"}, {"measurement": "Mean % Dose/g or ml, Lung", "setting": "5 min, lung", "value": "4.69 % Dose/g or ml"}, {"measurement": "Mean % Dose/g or ml, Muscle", "setting": "5 min, skeletal muscle", "value": "0.82 % Dose/g or ml"}, {"measurement": "Mean Tissue Ratio Heart/Blood", "setting": "5 min after dosing", "value": 24.31}, {"measurement": "Mean Tissue Ratio Heart/Liver", "setting": "5 min after dosing", "value": 6.31}, {"measurement": "Mean Tissue Ratio Heart/Lung", "setting": "5 min after dosing", "value": 1.35}]}
